“Also recorded” adds a separate entry of the source. Where two headings read alike, the source gives them in different places.
What was measured:
[1] = molecular target: T1, β-glucuronidase enzyme (E.C. 3.2.1.31, bovine liver) (Bos taurus, UniProt A3KMY8); assay: β-glucuronidase inhibition assay (p-nitrophenyl-β-D-glucuronide, absorbance 405 nm); format: biochemical; conditions: for β-glucuronidase inhibitory activity IC50 ± SD: in vitro, bovine liver enzyme, 37°C, triplicate
T1 sequence (A3KMY8 24-652): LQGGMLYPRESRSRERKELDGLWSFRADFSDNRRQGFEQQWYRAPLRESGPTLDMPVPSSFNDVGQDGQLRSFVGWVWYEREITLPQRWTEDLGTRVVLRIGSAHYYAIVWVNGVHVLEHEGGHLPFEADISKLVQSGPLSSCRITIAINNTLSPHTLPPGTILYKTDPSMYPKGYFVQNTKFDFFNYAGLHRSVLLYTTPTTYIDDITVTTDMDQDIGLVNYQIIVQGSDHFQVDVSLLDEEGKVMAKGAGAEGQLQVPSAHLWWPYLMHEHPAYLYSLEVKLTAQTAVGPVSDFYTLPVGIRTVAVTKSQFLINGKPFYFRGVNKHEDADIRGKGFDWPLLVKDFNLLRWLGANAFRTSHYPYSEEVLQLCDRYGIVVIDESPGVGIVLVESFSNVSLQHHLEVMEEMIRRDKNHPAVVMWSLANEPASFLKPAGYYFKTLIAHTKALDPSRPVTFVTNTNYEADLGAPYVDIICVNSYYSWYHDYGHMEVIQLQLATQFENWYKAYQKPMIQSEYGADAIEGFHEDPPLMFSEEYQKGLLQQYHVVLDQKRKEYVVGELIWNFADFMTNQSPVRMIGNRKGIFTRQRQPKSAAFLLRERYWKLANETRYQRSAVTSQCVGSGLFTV
Procedure: The inhibition of β-glucuronidase enzyme (E.C. 3.2.1.31, bovine liver) by test compounds was determined on a spectrophotometer by measuring the absorbance of p-nitrophenol at 405 nm, produced from the substrate. The reaction mixture comprised 185 μL of 0.1 M acetate buffer, and 5 μL of test compound solution, and 10 μL of (1U) enzyme solution in a 96-well plate. The mixture was incubated at 37°C for 30 min. The test compounds were solubilized in DMSO (100%), and 5 μL volume was added in each well (2% of total volume). […] The plates were read on a multiplate reader (SpectraMax plus 384) at 405 nm and 37°C, after addition of 50 μL of 0.4 mM p-nitrophenyl-β-D-glucuronide. All assays were performed in triplicate. IC50 values were calculated through EZ-Fit software (Perrella Scientific Inc., Amherst, MA, USA).

[2] = system: Leishmania major promastigotes; assay: leishmanicidal activity assay (72 h, microscopic counting); format: cell-based; conditions: for IC50: Leishmania major, read-out: Leishmanicidal activity IC50 ± SD
Procedure: Leishmania major (DESTO, Pakistan) was cultured in a mixture of NNN-biphasic medium, and normal physiological saline solution. L. major promastigotes were grown on RPMI 1640 medium, supplemented with fetal bovine serum (FBS) (10% heat inactivated). Parasites were centrifuged (at log phase) for 10 min at 2,000 rpm and washed thrice with saline. The final density of fresh culture (10^6 cells/mL) was acquired through dilution of parasites. Sample solution of 1 mg of test compounds was prepared in a mixture 50 μL of DMSO and 950 μL of RPMI media. Fully dissolved compounds were transferred to 96-well plate. The first row of 96-well plate received 180 μL of the medium, while the remaining wells received 100 μL medium. Test compounds (20 μL each) were added into the medium containing wells, followed by serial dilution. The parasite culture (100 μL) was then transferred to each well. Negative controls comprised of only the growth medium, while standard leishmanicidal drugs (amphotericin or pentamidine) were used as positive controls. The plate was then incubated for 72 h at 21–22°C. The inhibitory effect of test compounds on the culture was analyzed microscopically on an improved Neubauer counting chamber. IC50 values were calculated through Ezfit 5.03 Perella Scientific software (USA).

[3] = system: HeLa cancer cell line (human cervical carcinoma); assay: MTT cytotoxicity assay, HeLa; format: cell-based; conditions: 24 hours treatment, read-out: HeLa Cell line IC50 ± SD
Procedure: (§1) MTT (3-(4,5-dimethyl thiazol-2yl)-2,5-diphenyl tetrazolium bromide) assay was employed to study the cytotoxic activity against HeLa (human cervical carcinoma, provided by Prof. Dr. Anwar Ali Siddiqui from Aga Khan University, Karachi, Pakistan), and mouse fibroblast 3T3 (ATCC® CRL-1658, purchased from American Type Culture Collection, ATCC, Virginia, USA) cell lines. The cells (1 × 10^5 /well) were plated in 0.2 mL of DMEM high glucose medium/well in 96-well plates. The cells were treated for 24 hours with test compounds in the range of 25, 50, 75, 100, and 200 μM concentrations, respectively. For the MTT assay, the medium from the wells was removed carefully after 24 hours treatment. Each well was washed with 1X PBS for 2–3 times, and 200 μL of MTT (5 mg/mL) was added in to media containing wells (1:10). The plates were incubated for 4 hours at 37°C, in a 5% CO2 incubator. After incubation, MTT was removed and 0.1 mL of DMSO was added to each well and mixed by keeping on a stirrer. The presence of viable cells was visualized by the development of purple color due to formation of the formazan crystals. The plates were observed under spectrophotometer (Spectramax) and absorbance was taken at 545 and 570 nm for cancer and normal cell lines, respectively.

[4] = system: 3T3 cell line (mouse fibroblast); assay: MTT cytotoxicity assay, 3T3; format: cell-based; conditions: for IC50: read-out: 3T3 Cell line IC50 ± SD
Procedure: as §1

[5] = system: progesterone receptor (PR); set-up: method as in PMID 18515094, PMID 24552459, PMID 11953818; conditions: mibolerone eliminates PR expression; 5α-dehydrotestosterone reduces PR to basal levels; ref [1]–[4]; cited from earlier work
[6] = L. major promastigotes, 72 h at 21–22°C
[7] = Mus musculus, NIH3T3, 24 hours treatment

CC1CC2=CC(=O)CCC2C2C(O)CC3(C)C(CCC3(C)O)C12 (stereo not drawn) [Compound 8, 11β,17β-Dihydroxy-7α,17α-dimethylestr-4-en-3-one]
β-glucuronidase inhibitory activity IC50 ± SD [1]: Inactive
IC50 ([2]; 72 h): 70.09 ± 0.05 µM
IC50 [3]: 34.1 ± 5.3 µM
IC50 ([3]; Homo sapiens, HeLa, 24 h): 34.2 ± 5.3 µM
3T3 Cell line IC50 ± SD ([4]; 24 hours treatment): no cytotoxicity; also recorded: Inactive

CC1CC2=CC(=O)CCC2(O)C2CCC3(C)C(CCC3(C)O)C12 (stereo not drawn) [Compound 2, 10β,17β-Dihydroxy-7α,17α-dimethylestr-4-en-3-one]
β-glucuronidase inhibitory activity IC50 ± SD [1]: Inactive
Leishmanicidal activity IC50 ± SD [2, 6]: Inactive
IC50 ([3]; Homo sapiens, HeLa, 24 h): 46.5 ± 5.4 µM
IC50 [4, 7]: 43.3 ± 7.7 µM

C[C@@H]1CC2=CC(=O)CC[C@@H]2[C@H]2CC[C@@]3(C)[C@@H](CC[C@]3(C)O)[C@@H]21 [Compound 1, 17β-Hydroxy-7α,17α-dimethylestr-4-en-3-one, reference compound]
IC50 [1]: 43 ± 1.24 µM
IC50 ([2]; 72 h): 29.6 ± 0.88 µM
IC50 ([3]; Homo sapiens, HeLa, 24 h): 35.7 ± 4.46 µM
IC50 [4, 7]: 46.3 ± 11.7 µM
dose that eliminates / reduces to basal levels progesterone receptor expression [5]: 1 nM

CC1C(O)C2=CC(=O)CCC2(O)C2CCC3(C)C(CCC3(C)O)C12 (stereo not drawn) [Compound 4, 6β,10β,17β-Trihydroxy-7α,17α-dimethylestr-4-en-3-one]
β-glucuronidase inhibitory activity IC50 ± SD [1]: Inactive
Leishmanicidal activity IC50 ± SD [2, 6]: Inactive
IC50 ([3]; Homo sapiens, HeLa, 24 h): 152 ± 2.1 µM
IC50 [4, 7]: 89.4 ± 2.7 µM

N.N.[Cl][Pt][Cl] [Cisplatin, reference compound]
IC50 [3]: 38.5 ± 1.8 µM
IC50 ([4]; 24 hours treatment): 39.7 ± 2.7 µM

C[C@H]1[C@@H]2[C@H](CC[C@@]3(C)[C@H]2CC[C@]3(C)O)[C@H]2CCC(=O)C=C2[C@@H]1O [Compound 3, 6β,17β-Dihydroxy-7α,17α-dimethylestr-4-en-3-one]
β-glucuronidase inhibitory activity IC50 ± SD [1]: Inactive
IC50 ([2]; 72 h): 79.09 ± 0.06 µM
IC50 ([3]; Homo sapiens, HeLa, 24 h): 108 ± 4 µM
IC50 [4, 7]: 65.6 ± 2.5 µM

C[C@]12CCC(=O)C[C@@H]1CC[C@@H]1[C@@H]2CC[C@]2(C)[C@@H](O)CC[C@@H]12 [5α-dehydrotestosterone]
dose that eliminates / reduces to basal levels progesterone receptor expression [5]: 10 to 100 nM

N=C(N)c1ccc(OCCCCCOc2ccc(C(=N)N)cc2)cc1 [Pentamidine, reference compound]
IC50 [2, 6]: 5.09 ± 0.09 µM

C[C@@H]1[C@H](O)[C@@H](C)/C=C/C=C/C=C/C=C/C=C/C=C/C=C/[C@H](O[C@@H]2O[C@H](C)[C@@H](O)[C@H](N)[C@@H]2O)C[C@@H]2O[C@](O)(C[C@@H](O)C[C@@H](O)[C@H](O)CC[C@@H](O)C[C@@H](O)CC(=O)O[C@H]1C)C[C@H](O)[C@H]2C(=O)O [Amphotericin B, reference compound]
IC50 ([2]; 72 h): 0.29 ± 0.05 µM
